# Assay results reported in patent US20230312577A1, “DUAL KINASE-BROMODOMAIN INHIBITORS” (MONASH UNIVERSITY, priority 2020, published 2023).
# Test system: OPM2 cells
# Experiment: Cell proliferation assay (ViaLight, cellular ATP)
# Type: cell-based
# Details: Homo sapiens, OPM-2, 120 h, 5 days, 5 μM to 1 nM
# Procedure: OPM2 cells (1×10^3) were plated in a 96 well plate. Test compounds were added to cells at final concentrations ranging from 5 μM to 1 nM. They were incubated for 5 days before they were analysed using ViaLight luminescence-based proliferation assays which detect cellular ATP, as per the manufacturer's instructions. All samples were prepared in technical triplicates. Data analysis was performed in GraphPad Prism version 7.00 for Mac OS X, (GraphPad Software, San Diego California USA) in order to calculate the GI50.
row,Compound,GI50
1,"CC(=O)N1c2ccc(-c3cccc(CCNC(=O)c4nc5c(N6CCOCC6)nc(-c6cnc(N)nc6)cn5c4C)c3)cc2CC[C@@H]1C [Cpd 050, (S)-N-(3-(1-acetyl-2-methyl-1,2,3,4-tetrahydroquinolin-6-yl)phenethyl)-6-(2-aminopyrimidin-5-yl)-3-methyl-8-morpholinoimidazo[1,2-a]pyrazine-2-carboxamide]",100 to 500 nM
2,"COc1ccc(-c2cn3cc(C(=O)NCc4ccc(-c5ccc6c(c5)CC[C@H](C)N6C(C)=O)cc4)nc3c(N3CCOCC3)n2)cn1 [Cpd 058, (S)-N-(4-(1-Acetyl-2-methyl-1,2,3,4-tetrahydroquinolin-6-yl)benzyl)-6-(6-methoxypyridin-3-yl)-8-morpholinoimidazo[1,2-a]pyrazine-2-carboxamide]",100 to 500 nM
3,"CC(=O)N1c2ccc(-c3ccc(CN(C)C(=O)c4cn5cc(-c6cnc(N)nc6)nc(N6CCOCC6)c5n4)cc3)cc2CC[C@@H]1C [Cpd 037, (S)-N-(4-(1-acetyl-2-methyl-1,2,3,4-tetrahydroquinolin-6-yl)benzyl)-6-(2-aminopyrimidin-5-yl)-N-methyl-8-morpholinoimidazo[1,2-a]pyrazine-2-carboxamide]",100 to 500 nM
4,"CC(=O)N1c2ccc(-c3ccc(NC(=O)Cc4cn5cc(-c6cnc(N)nc6)nc(N6CCOCC6)c5n4)cc3)cc2CC[C@@H]1C [Cpd 022, (S)-N-(4-(1-acetyl-2-methyl-1,2,3,4-tetrahydroquinolin-6-yl)phenyl)-2-(6-(2-aminopyrimidin-5-yl)-8-morpholinoimidazo[1,2-a]pyrazin-2-yl)acetamide]",≤ 100 nM
5,"CC(=O)N1c2ccc(-c3ccc(CNC(=O)c4cn5cc(-n6c(C(F)F)nc7ccccc76)nc(N6CCOCC6)c5n4)cc3)cc2CC[C@@H]1C [Cpd 060, (S)-N-(4-(1-Acetyl-2-methyl-1,2,3,4-tetrahydroquinolin-6-yl)benzyl)-6-(2-(difluoromethyl)-1H-benzo[d]imidazol-1-yl)-8-morpholinoimidazo[1,2-a]pyrazine-2-carboxamide]",≤ 100 nM
6,"CC(=O)N1c2ccc(-c3cccc(NC(=O)CNC(=O)c4sc5c(N6CCOCC6)nc(-c6cnc(N)nc6)nc5c4C)c3)cc2CC[C@@H]1C [Cpd 049, (S)-N-(2-((3-(1-acetyl-2-methyl-1,2,3,4-tetrahydroquinolin-6-yl)phenyl)amino)-2-oxoethyl)-2-(2-aminopyrimidin-5-yl)-7-methyl-4-morpholinothieno[3,2-d]pyrimidine-6-carboxamide]",100 to 500 nM
7,"CC(=O)N1c2ccc(-c3ccc(CN(C)C(=O)c4sc5c(N6CCOCC6)nc(-c6cnc(N)nc6)nc5c4C)cc3)cc2CC[C@@H]1C [Cpd 039, (S)-N-(4-(1-acetyl-2-methyl-1,2,3,4-tetrahydroquinolin-6-yl)benzyl)-2-(2-aminopyrimidin-5-yl)-N,7-dimethyl-4-morpholinothieno[3,2-d]pyrimidine-6-carboxamide]",> 500 nM
8,"CC(=O)N1c2ccc(-c3ccc(CNC(=O)c4cc5c(N6CCOCC6)nc(-c6cnc(N)nc6)c(Cl)n5n4)cc3)cc2CC[C@@H]1C [Cpd 068, (S)-N-(4-(1-Acetyl-2-methyl-1,2,3,4-tetrahydroquinolin-6-yl)benzyl)-6-(2-aminopyrimidin-5-yl)-7-chloro-4-morpholinopyrazolo[1,5-a]pyrazine-2-carboxamide]",≤ 100 nM
9,"CC(=O)N1c2ccc(-c3cnn(C4CCN(Cc5sc6c(N7CCOCC7)nc(-c7cnc(N)nc7)nc6c5C)CC4)c3)cc2CC[C@@H]1C [Cpd 052, (S)-1-(6-(1-(1-((2-(2-aminopyrimidin-5-yl)-7-methyl-4-morpholinothieno[3,2-d]pyrimidin-6-yl)methyl)piperidin-4-yl)-1H-pyrazol-4-yl)-2-methyl-3,4-dihydroquinolin-1(2H)-yl)ethan-1-one]",> 500 nM
10,"CC(=O)N1c2ccc(-c3ccc(CC(=O)NCc4cn5cc(-c6cnc(N)nc6)nc(N6CCOCC6)c5n4)cc3)cc2CC[C@@H]1C [Cpd 018, (S)-2-(4-(1-Acetyl-2-methyl-1,2,3,4-tetrahydroquinolin-6-yl)phenyl)-N-((6-(2-aminopy-rimidin-5-yl)-8-morpholinoimidazo[1,2-a]pyrazin-2-yl)methyl)acetamide]",100 to 500 nM
11,"CC(=O)N1c2ccc(-c3ccc(CN(C)C(=O)c4cc5nc(-c6cnc(N)nc6)nc(N6CCOCC6)c5s4)cc3)cc2CC[C@@H]1C [Cpd 038, (S)-N-(4-(1-acetyl-2-methyl-1,2,3,4-tetrahydroquinolin-6-yl)benzyl)-2-(2-aminopyrimidin-5-yl)-N-methyl-4-morpholinothieno[3,2-d]pyrimidine-6-carboxamide]",> 500 nM
12,"CC(=O)N1c2ccc(-c3ccc(NC(=O)CNC(=O)c4nc5c(N6CCOCC6)nc(-c6cnc(N)nc6)cn5c4C)cc3)cc2CC[C@@H]1C [Cpd 048, (S)-N-(2-((4-(1-acetyl-2-methyl-1,2,3,4-tetrahydroquinolin-6-yl)phenyl)amino)-2-oxoethyl)-6-(2-aminopyrimidin-5-yl)-3-methyl-8-morpholinoimidazo[1,2-a]pyrazine-2-carboxamide]",≤ 100 nM
13,"CC(=O)N1c2ccc(-c3cccc(NC(=O)Cc4cn5cc(-c6cnc(N)nc6)nc(N6CCOCC6)c5n4)c3)cc2CC[C@@H]1C [Cpd 023, (S)-N-(3-(1-acetyl-2-methyl-1,2,3,4-tetrahydroquinolin-6-yl)phenyl)-2-(6-(2-aminopyrimidin-5-yl)-8-morpholinoimidazo[1,2-a]pyrazin-2-yl)acetamide]",100 to 500 nM
14,"CC(=O)N1c2ccc(-c3ccc([C@@H](C)NC(=O)c4cn5cc(-c6cnc(N)nc6)nc(N6CCOCC6)c5n4)cc3)cc2CC[C@@H]1C [Cpd 063, N-((R)-1-(4-((S)-1-Acetyl-2-methyl-1,2,3,4-tetrahydroquinolin-6-yl)phenyl)ethyl)-6-(2-aminopyrimidin-5-yl)-8-morpholinoimidazo[1,2-a]pyrazine-2-carboxamide]",≤ 100 nM
15,"CC(=O)N1c2ccc(-c3ccc(CNC(=O)Cc4cn5cc(-c6cnc(N)nc6)nc(N6CCOCC6)c5n4)cc3)cc2CC[C@@H]1C [Cpd 024, (S)-N-(4-(1-acetyl-2-methyl-1,2,3,4-tetrahydroquinolin-6-yl)benzyl)-2-(6-(2-aminopyrimidin-5-yl)-8-morpholinoimidazo[1,2-a]pyrazin-2-yl)acetamide]",> 500 nM
16,"CC(=O)N1c2ccc(-c3ccc(CN(C)Cc4sc5c(N6CCOCC6)nc(-c6cnc(N)nc6)nc5c4C)cc3)cc2CC[C@@H]1C [Cpd 043, (S)-1-(6-(4-((((2-(2-aminopyrimidin-5-yl)-7-methyl-4-morpholinothieno[3,2-d]pyrimidin-6-yl)methyl)(methyl)amino)methyl)phenyl)-2-methyl-3,4-dihydroquinolin-1(2H)-yl)ethan-1-one]",> 500 nM
17,"CC(=O)N1c2ccc(-c3ccc(C(=O)NCCNC(=O)c4cn5cc(-c6cnc(N)nc6)nc(N6CCOCC6)c5n4)cc3)cc2CC[C@@H]1C [Cpd 012, (S)-N-(2-(4-(1-Acetyl-2-methyl-1,2,3,4-tetrahydroquinolin-6-yl)benzamido)ethyl)-6-(2-aminopyrimidin-5-yl)-8-morpholinoimidazo[1,2-a]pyrazine-2-carboxamide]",≤ 100 nM
18,"CC(=O)N1c2ccc(-c3cccc(CNC(=O)c4cn5cc(-c6cnc(N)nc6)nc(N6CCOCC6)c5n4)c3)cc2CC[C@@H]1C [Cpd 011, (S)-N-(3-(1-acetyl-2-methyl-1,2,3,4-tetrahydroquinolin-6-yl)benzyl)-6-(2-aminopyrimidin-5-yl)-8-morpholinoimidazo[1,2-a]pyrazine-2-carboxamide]",100 to 500 nM
19,"CC(=O)N1c2ccc(-c3ccc(CNC(=O)c4cc5c(N6CCOCC6)nc(-c6cnc(N)nc6)cn5n4)cc3)cc2CC[C@@H]1C [Cpd 067, (S)-N-(4-(1-Acetyl-2-methyl-1,2,3,4-tetrahydroquinolin-6-yl)benzyl)-6-(2-aminopyrimidin-5-yl)-4-morpholinopyrazolo[1,5-a]pyrazine-2-carboxamide]",≤ 100 nM
20,"CC(=O)N1c2ccc(-c3ccc(C(=O)N4CCN(Cc5cn6cc(-c7cnc(N)nc7)nc(N7CCOCC7)c6n5)CC4)cc3)cc2CC[C@@H]1C [Cpd 014, (S)-1-(6-(4-(4-((6-(2-Aminopyrimidin-5-yl)-8-morpholinoimidazo[1,2-a]pyrazin-2-yl)methyl)piperazine-1-carbonyl)phenyl)-2-methyl-3,4-dihydroquinolin-1(2H)-yl)ethan-1-one]",100 to 500 nM
21,"CC(=O)N1c2ccc(-c3ccc([C@H](C)NC(=O)c4cn5cc(-c6cnc(N)nc6)nc(N6CCOCC6)c5n4)cc3)cc2CC[C@@H]1C [Cpd 062, N-((S)-1-(4-((S)-1-Acetyl-2-methyl-1,2,3,4-tetrahydroquinolin-6-yl)phenyl)ethyl)-6-(2-aminopyrimidin-5-yl)-8-morpholinoimidazo[1,2-a]pyrazine-2-carboxamide]",≤ 100 nM
22,"CC(=O)N1c2ccc(-c3cccc(C(=O)NCc4cn5cc(-c6cnc(N)nc6)nc(N6CCOCC6)c5n4)c3)cc2CC[C@@H]1C [Cpd 017, (S)-3-(1-Acetyl-2-methyl-1,2,3,4-tetrahydroquinolin-6-yl)-N-((6-(2-aminopyrimidin-5-yl)-8-morpholinoimidazo[1,2-a]pyrazin-2-yl)methyl)benzamide]",100 to 500 nM
23,"CC(=O)N1c2ccc(-c3ccc(CNC(=O)c4cn5c(N6CCOCC6)nc(-c6cnc(N)nc6)cc5n4)cc3)cc2CC[C@@H]1C [Cpd 070, (S)-N-(4-(1-Acetyl-2-methyl-1,2,3,4-tetrahydroquinolin-6-yl)benzyl)-7-(2-aminopyrimidin-5-yl)-5-morpholinoimidazo[1,2-c]pyrimidine-2-carboxamide]",≤ 100 nM
24,"CC(=O)N1c2ccc(-c3ccc(CNC(=O)c4nc5c(N6CCOCC6)cc(-c6cnc(N)nc6)cn5n4)cc3)cc2CC[C@@H]1C [Cpd 073, (S)-N-(4-(1-Acetyl-2-methyl-1,2,3,4-tetrahydroquinolin-6-yl)benzyl)-6-(2-aminopyrimidin-5-yl)-8-morpholino-[1,2,4]triazolo[1,5-a]pyridine-2-carboxamide]",≤ 100 nM
